Data set [1] has as its system male Sprague-Dawley rats. The data set can be described thus: Neuropathic pain model (Chung model, spinal nerve ligation, withdrawal threshold to von Frey filaments). The format is in vivo, rat. Particulars: Chung model of chronic neuropathic pain, FIG. 8; for anti-allodynic effects: intrathecal single injection. From the text:
Spinal Nerve Ligation: After Animal Care and Use Committee approval, male Sprague-Dawley rats (Harlan, Indianapolis, Ind., USA) weighing 180-200 g undergo anesthesia as previously described by Kim and Chung (Pain 1992, 50, 355-363). Briefly, under general anesthesia with inhalational halothane, the left L5 and L6 spinal nerves are identified through a small laminotomy and tightly ligated. Approximately one week later, an intrathecal catheter is placed under general anesthesia by insertion under direct vision of a polyethylene catheter through a small slit in the dura at the cisterna magnum, and advanced 8.5 cm such that the catheter tip resides in the lower lumbar intrathecal space. Animals are studied approximately one week later. Ligation of the lumbar spinal nerves results in a primarily unilateral increase in the sensitivity to light touch on the operated side. Sensitivity is assessed via application of calibrated von Frey filaments. The withdrawal threshold is determined using an up down method as previously described by Chaplan et al. (J. Neurosci. Methods 1994, 53, 55-63).
Experimental Design: Animals receive, at least 4 weeks after spinal nerve ligation surgery, and at least 1 week after intrathecal catheter insertion, single injections of vehicle (β-cyclodextrin) or the drug substance, using a randomized and blinded protocol. Withdrawal thresholds are determined at intervals for up to 20 hr after injection.

The test system of data set [2] is adult male rats. The data set can be described thus: Postincisional hypersensitivity model of postoperative pain (paw incision, withdrawal threshold to von Frey filaments). Format: in vivo, rat. Conditions: intrathecal (i.t.), 24 h after paw incision surgery. On the procedure:
Animal preparation: Following Animal Care and Use Committee approval, an intrathecal (i.t.) catheter with tip in the lumbar space is inserted as previously described in adult male rats weighing 250 g (Yaksh and Rudy, Physiol Behav. 1976, 7, 1032-1036). One week following the insertion of the i.t. catheter, paw incision surgery is performed as previously described (Brennan et al., Pain 1996, 64, 493-501). Briefly, animals are anesthetized with halothane, and a 1-cm long incision is made in the plantar aspect of the left hind paw starting 0.5 cm from the edge of the heel toward the toe after sterile preparation with 70% ethanol. The plantaris muscle is elevated and incised longitudinally. The wound is closed with 2 mattress sutures of 5.0 silk. Subsequently, withdrawal threshold to von Frey filaments is determined one day after surgery (Chaplan et al., J. Neurosci. Methods, 1994, 53, 55-63). For all testing but pilot dose ranging studies, investigators are blinded to study drug administration. A cut off value of 22 g is used. […]
Single drug injection: For single drug administration, a volume containing 5 μL drug is used, followed by 10 μL of saline. […] Dose response curves are first constructed, and ED40 values for single drugs are then determined at the time of peak effect.
Drug interaction: For the combination of T-62 with morphine and NBQX, two injections are performed since the time of peak effect for morphine and NBQX is 30 min earlier than that of T-62 (T-62 is injected 30 min before drug injections). Paw withdrawal thresholds are determined before surgery, before drug injection, and 30, 60, 90, 120, 150, 180, and 210 min after the second drug injection. […] The dose response curves are then constructed for the combined drugs, and the ED40 values of the combined drugs are calculated at the time point of peak effect. […]
Data analysis: Data are presented as mean ±S.E. Withdrawal threshold data are analyzed by two-way analysis of variance followed by Fisher's LSD test. […] Isobolograms are statistically analyzed by student T test.

The conditions of data set [3]: cited from earlier work.

Entries after “also recorded” stand apart in the source; their conditions may differ.

Turning to `Nc1sc2c(c1C(=O)c1cccc3ccccc13)CCC2` [formula (Ic)], in data set [1], the “relative potency among the three enhancers” value is on record as “most potent enhancer of the three agents” and the anti-allodynic effects result is given as “dose-dependent anti-allodynic effects”.
On to `Nc1sc2c(c1C(=O)c1ccc(Cl)cc1)CCCC2` [T-62, (2-amino-4,5,6,7-tetrahydrobenzo[b]thiophen-3-yl)(4-chlorophenyl)methanone], for which the “anti-hypersensitivity effect (reduction of mechanical hypersensitivity)” value in data set [2] is listed as “reduced mechanical hypersensitivity in a time dependent manner; also recorded: modest effect”. Further, the anti-allodynic effects result in data set [1] is given as “dose-dependent anti-allodynic effects”. Moreover, the “effect on inflammatory and neuropathic pain” value in data set [3] (literature (Li et al. 2003, Li et al. 2002, Pan et al. 2001; US 6,248,774, US 6,489,356)) was “reduce inflammatory and neuropathic pain”. Further, the oral efficacy entry in data set [3] (literature) is recorded as “orally effective”. In data set [3] (literature, compared with administration of adenosine), the adverse side effects entry is listed as “avoid of the adverse side effects associated with administration of adenosine”.
On to `Nc1sc2c(c1C(=O)c1ccccc1)CCS2` [formula (Ib)], for which the anti-allodynic effects entry in data set [1] was “dose-dependent anti-allodynic effects”.
`CN1CC[C@]23c4c5ccc(O)c4O[C@H]2[C@@H](O)C=C[C@H]3[C@H]1C5` [Morphine, morphine, reference compound]: in data set [2], the “anti-hypersensitivity effect (reduction of mechanical hypersensitivity)” value is “reduces mechanical hypersensitivity in a time and dose dependent manner”.
Same read-out and setting: for `NS(=O)(=O)c1cccc2c1c([N+](=O)[O-])cc1nc(O)c(O)nc12` [NBQX, 2,3-dihydroxy-6-nitro-7-sulfamoylbenzo(f)quinoxaline, reference compound] the value was “reduces the mechanical hypersensitivity in a time and dose dependent manner”.

Source of the values: patent US20080108622A1, “COMBINATION THERAPY FOR THE TREATMENT OF PAIN” (priority 2006, published 2008).
